# Reference: patent publication US12390460B2, “Treatment for obesity” (1GLOBE BIOMEDICAL CO., LTD., priority 2018, dated 2025)
# What was measured:
# Type in all cases: in vivo
# [1] = Oral glucose tolerance test (OGTT); conditions: HFD-fed mice, 5th week of treatment, vs vehicle
# Experimental: (§1) The described beneficial changes in body composition improved all aspects of the metabolic syndrome, including the underlying insulin resistance. Therefore, to fully characterize this animal model, we also assessed insulin signaling on live animals on the 5th week of Compound 14-3-treatment by conducting oral glucose tolerance test (OGTT, FIGS. 9A-C) and intraperitoneal insulin tolerance test (ITT, FIGS. 9D-E).
# (§2) Both the OGTT and ITT tests were carried out on mice that have been starved for 6 hours before the procedure to eliminate the effect of the last meal on the blood glucose level. In both tests, we measured fasting glucose levels 30 min before the start of the assay to define baseline conditions. In the OGTT assay, the mice had been gavaged with 2 g/kg glucose, dissolved in water. After administration of the glucose, blood glucose level was measured via tail vein nicking using a commercially available glucometer. The obtained data was plotted against time (FIG. 9A) and the area under curve (AUC) calculations were carried out (FIG. 9B). Additionally, the blood glucose level measured at 120 min after gavage was used to describe the overall glucose tolerance of the mice (FIG. 9C).
# [2] = test system: genes involved in lipid transport and degradation, beta-oxidation, de novo lipogenesis, and insulin sensitivity (RORA, ACADM, ACOX1, MLYCD, PEPCK); test: Gene expression in visceral fat (eWAT); conditions: HFD-fed mice
# Description: To get a more detailed insight into the metabolic changes caused by the Compound 14-3 treatment in the visceral fat (eWAT), the expression of genes involved in lipid transport and degradation, beta-oxidation, de novo lipogenesis, and insulin sensitivity were examined.
# Acyl-Coenzyme A dehydrogenase, C-4 to C-12 straight chain (ACADM, FIG. 6B) is known to be important for the degradation of medium chain fatty acids.
# Similarly, malonyl CoA decarboxylase (MLYCD, FIG. 6D) has been induced by the Compound 14-3 treatment. This event is linked to decreased malonyl CoA synthesis and the suppression of de novo lipogenesis by Compound 14-3.
# [3] = Intraperitoneal insulin tolerance test (ITT); conditions: HFD-fed mice, 5th week of treatment, vs vehicle
# Experimental: as §1
# as §2, with “The obtained data was plotted against time (FIG. 9A) and the area under curve (AUC) calculations were carried out (FIG. 9B).” left out
# In the ITT test, we have intraperitoneally administered […] human recombinant insulin (Humulin N, Eli Lilly, Cambridge, MA) at the start of the assay and blood glucose was similarly measured for 120 min. […]
# TGF-β = TGF-β gene expression in eWAT; conditions: HFD-fed mice; FIG. 4C
# Description: Since obesity has been linked to low-grade inflammation in the adipose tissue, we consequently observed increased TGF-β expression in the epididymal fat pads of the HFD-fed mice.
smiles,measurement,setting,value
CCN(CC)CCNC(=O)c1c(C)[nH]c(/C=C2\C(=O)Nc3ccc(-c4csc(-c5ccccc5)n4)cc32)c1C [Compound 14-3],glucose tolerance (OGTT),"[1]; 6 h starved, 2 g/kg glucose gavage, FIG. 9A",markedly improved
same,area under curve during OGTT,[1]; FIG. 9B,smaller
same,blood glucose level at 120 min during OGTT,[1]; FIG. 9C,decreased
same,RORA expression in eWAT,[2]; FIG. 6A,significantly increased
same,ACADM gene expression in eWAT,[2]; FIG. 6B,Increased
same,ACOX1 expression in eWAT,[2]; FIG. 6C,increased
same,MLYCD expression in eWAT,[2]; FIG. 6D,induced
same,PEPCK gene expression in eWAT,[2]; FIG. 6E,comparable to that of the control-fed mice
same,blood glucose levels in response to insulin (ITT),"[3]; i.p. insulin, 120 min, FIG. 9D",steeper drop
same,area under curve during ITT,[3]; FIG. 9E,smaller
same,TGF-β abundance (gene expression) in eWAT,TGF-β,decreased
